The text below walks through data of patent US10851069B2, “Compositions of crystallized hydrophobic compounds and methods of making and using same” (Massachusetts Institute of Technology, priority 2016, dated 2020).

Molecules are shown by their SMILES.

Data set [1] deals with rat islets. As to the kind of experiment: Live/dead islet staining of islets co-encapsulated with drug. In kind it is cell-based. As to conditions: amorphous and crystalline forms. As for the experimental part:
Male Sprague-Dawley rats from Jackson Laboratories (Bar Harbor, Me.) weighing approximately 300 grams were used for harvesting islets. All rats were anesthetized by a 1:20 xylazine (10 mg/kg) to ketamine (150 mg/kg) injection given intraperitoneally, and the total volume of each injection was 0.4 ml-0.5 ml depending on the weight of rat. Isolation surgeries were performed as described by Lacy and Kostianovsky^2. Briefly, the bile duct was cannulated and the pancreas was distended by an in vivo injection of 0.15% Liberase (Research Grade, Roche) in RPMI 1640 media solution. Rats were sacrificed by cutting the descending aorta and the distended pancreatic organs were removed and held in 50 ml conical tubes on ice until the completion of all surgeries. All tubes were placed in a 37° C. water bath for a 30 min digestion, which was stopped by adding 10-15 ml of cold M199 media with 10% heat-inactivated fetal bovine serum (HIFBS) and lightly shaking. Digested pancreases were washed twice in the same aforementioned M199 media, filtered through a 450 μm sieve, and then suspended in a Histopaque 1077 (Sigma)/M199 media gradient and centrifuged at 1,700 RCF at 4° C. […] Purified islets were hand-counted by aliquot under a light microscope and then washed three times in sterile ix phosphate-buffered saline. […]

Data set [2] concerns C57BL/6 mice. As to the kind of experiment: Naked GW2580 crystals co-injected SC with polystyrene or glass spheres, 2 weeks. The class given is in vivo. As for the experimental part: Naked crystals of GW2580 or saline-only (no drug control) were delivered intraperitoneally along with 500 μm alginate spheres for 2 weeks to C57BL/6 mice. […] Brightfield and fluorescence imaging was used to emphasize the respective presence or lack of fibrotic overgrowth on retrieved alginate spheres from either saline (control) or crystalline GW2580 treatment groups (FIG. 17C). […] GW2580 crystal testing (at doses of 0.5 and 5 mg/SC site) was also extended into the SC implant space with other immunogenic materials, ceramic glass (GL) and polymer polystyrene (PS). […] Retrieved materials where fixed overnight using 4% paraformaldehyde at 4° C. After fixation, alginate sphere or retrieved tissue samples were washed using 70% alcohol. The materials where then mixed with 4 degrees calcium-cooled Histogel (VWR, CA #60872-486). After the molds hardened, the blocks were processed for paraffin embedding, sectioning and staining according to standard histological methods. Single-cell suspensions of freshly excised tissues were prepared using a gentle MACS Dissociator (Miltenyi Biotec, Auburn, Calif.) according to the manufacturer's protocol. Single-cell suspensions were prepared in a passive PEB dissociation buffer (1×PBS, pH 7.2, 0.5% BSA, and 2 mM EDTA) and suspensions were passed through 70 μm filters (Cat. #22363548, Fisher Scientific, Pittsburgh, Pa.). This process removed the majority of cells adhered to the surface (>90%). All tissue and material sample-derived, single-cell populations were then subjected to red blood cell lysis with 5 ml of 1×RBC lysis buffer (Cat. #00-4333, eBioscience, San Diego, Calif., USA) for 5 min at 4° C. The reaction was terminated by the addition of 20 ml of sterile 1×PBS. The cells remaining were centrifuged at 300-400 g at 4° C. and resuspended in a minimal volume (˜50 μl) of eBioscience Staining Buffer (cat. #00-4222) for antibody incubation. All samples were then co-stained in the dark for 25 min at 4° C. with two of the fluorescently tagged monoclonal antibodies specific for the cell markers CD68 (1 μl (0.5 μg) per sample; CD68-Alexa647, Clone FA-11, Cat. #11-5931, BioLegend), Ly-6G (Gr-1) (1 μl (0.5 μg) per sample; Ly-6G-Alexa-647, Clone RB6-8C5, Cat. #108418, BioLegend), CD11b (1 μl (0.2 μg) per sample; or CD11b-Alexa-488, Clone M1/70, Cat. #101217, BioLegend). For alpha smooth muscle actin (fibrosis) analysis, additional cell aliquots were also fixed in 1% paraformaldehyde and permeabilized with 0.1% triton X-100 before being stained with Cy3-conjugated anti-mouse αSM actin antibody (1:100) (Sigma Aldrich, St. Louis, Mo.). Two ml of eBioscience Flow Cytometry Staining Buffer (cat. #00-4222, eBioscience) was then added, and the samples were centrifuged at 400-500 g for 5 min at 4° C. […]

As to `COc1ccc(COc2ccc(Cc3cnc(N)nc3N)cc2OC)cc1` [GW2580, 5-[[3-Methoxy-4-[(4-methoxyphenyl)methoxy]phenyl]methyl]-2,4-pyrimidinediamine], in data set [1], the “toxicity to co-encapsulated islets (dead/live imaging)” value is “non-toxic”. Moreover, in data set [2] (SC-implanted PS and GL 0.5 mm spheres, 2 weeks), the “responding macrophages (FACS)” value was “significant reductions in responding macrophages”. The “drug extracted from nearby tissue” value in data set [2] (all implant groups, 2 weeks) is “large quantities of remaining drug”. Besides, the anti-fibrotic effect entry in data set [2] (ceramic glass (GL) spheres, SC, no histology) is “anti-fibrotic effects were also observed”. In addition, the “anti-fibrotic effect (H&E and Masson's Trichrome)” value in data set [2] (polystyrene (PS) spheres, SC, 0.5 and 5 mg/SC site, 2 weeks) was “significant anti-fibrotic effects”.
